From patent US4024224A, “14-Aminodaunomycins, their preparation and use” (priority 1974, dated 1977)
In brackets after ≈: the same amount, converted by molar mass. Like-named read-outs stand apart in the source and are kept apart here.

Assays:
[1] = system: Moloney Sarcoma Virus (MSV); experiment: Inhibition of MSV-M foci formation in mouse embryo fibroblasts; format: cell-based; conditions: Fibroblast, 120 h; for IC50: read-out: MSV-M foci ID 50 (Inhibiting Dose 50%); for activity at 0.1 µg/mL: dose 0.1 μg/ml; for activity at 0.4 µg/mL: dose 0.4 μg/ml
Experimental: (§1) Mouse embryo fibroblasts (MEF) were plated on 35 mm. Falcon plastic dishes and infected 24 hours later with Moloney Sarcoma Virus (MSV) in the presence of DEAE-dextran (25 μg./ml.). The samples were then treated for 3 days with different concentrations of the compounds of the invention. The number of foci of transformed cells was microscopically determined 5 days after the infection. Uninfected MEF were similarly treated and at the end of the experiment, the cells were counted in an haemocytometer. In all the experiments, the cells were incubated in a 5% CO2 incubator at 37° C.
(§2) For use in these tests the compounds were dissolved in distilled water or in 5% ethyl alcohol in distilled water and then diluted in culture medium.
The results of these tests are reported in Table I in terms of ID50 values (Inhibiting Dose 50%), calculated on dose-effects lines.

[2] = Proliferation of uninfected mouse embryo fibroblasts (MEF); format: cell-based; conditions: mouse, mouse embryo fibroblasts; calculated on dose-effects lines; uninfected MEF, 3 days treatment; read-out: MEF proliferation ID 50 (Inhibiting Dose 50%)
Experimental: as §1, §2

Mouse Embryo Fibroblasts = experiment: as above; format: cell-based; conditions: Mus musculus, Fibroblast, 72 h, read-out: MEF No. of cells; for activity at 0.1 µg/mL: dose 0.1 μg/ml; for activity at 0.4 µg/mL: dose 0.4 μg/ml
Experimental: as §1, §2

[3] = Antitumor activity and toxicity on ascites Sarcoma 180 in CD 1 mice; format: in vivo; conditions: mouse, in vivo, ip, read-out: % Toxic Deaths
Experimental: (§3) The antitumor activity of the compounds of the invention was tested on ascites Sarcoma 180.
(§4) Three month old CD 1 mice were used. Sarcoma 180 ascites cells were inoculated intraperitoneally (10^6 cells/mouse). For use in these tests, the compounds were dissolved in distilled water or in 5% ethyl alcohol in distilled water, then diluted with Ringers solution and administered i.p. 1 day after the tumor implant (10 ml./kg. of body weight).
(§5) The toxicity of the test compounds was evaluated by macroscopic autoptic examination mainly in terms of reduction in spleen size. The comparison of the effectiveness of the test compounds is based on the maximum increase in median survival time, as compared to untreated controls, over the dose range used. The number of Long Term Survivors (LTS) refers to tumor-free mice at the end of the experiment (60 days). Solid Sarcoma 180 was implanted subcutaneously by trocar in the flank of CD 1 mice according to standard methods. The mice were treated i.v. for 5 consecutive days, starting 1 day after the tumor implant. On the 11th day the tumor volume was measured by means of a caliper and evaluated according to the formula (a^2 × b)/2, a and b being the minimum and the maximum diameters respectively.

ascites Sarcoma 180 = experiment: as above; format: in vivo; conditions: for % LTS: 60 days; for LTS (Long Term Survivors after 60 days): survivors/total; for Toxic Deaths: deaths/total
Experimental: as §3, §4, §5

[4] = calculated on dose-effects lines, 3 days treatment
[5] = dose 0.0062 μg/ml, 3 days treatment, foci counted 5 days after infection, read-out: MSV-M No. of foci
[6] = dose 0.0250 μg/ml, 3 days treatment, foci counted 5 days after infection, read-out: MSV-M No. of foci
[7] = 3 days treatment, foci counted 5 days after infection, read-out: MSV-M No. of foci
[8] = dose 0.0062 μg/ml, uninfected MEF, 3 days treatment
[9] = dose 0.0250 μg/ml, uninfected MEF, 3 days treatment
[10] = uninfected MEF, 3 days treatment
[11] = 0.2 mg./kg. i.p. 1 day after tumor implant
[12] = 1 mg./kg. i.p. 1 day after tumor implant
[13] = 5 mg./kg. i.p. 1 day after tumor implant
[14] = 12.5 mg./kg. i.p. 1 day after tumor implant
[15] = 25 mg./kg. i.p. 1 day after tumor implant
[16] = 50 mg./kg. i.p. 1 day after tumor implant
[17] = 10 mg./kg. i.p. 1 day after tumor implant

Structure (SMILES)	IC50 [1, 4]	activity at 0.0062 µg/mL [1, 5]	activity at 0.025 µg/mL [1, 6]	activity at 0.1 µg/mL [1, 7]	activity at 0.4 µg/mL [1, 7]	IC50 at 72 h [2]	mortality ([3]; 0.2 mg./kg. i.p.)	mortality ([3]; 1 mg./kg. i.p.)	mortality ([3]; 5 mg./kg. i.p.)	% LTS (ascites Sarcoma 180; [11])	LTS (Long Term Survivors after 60 days) (ascites Sarcoma 180; [11])	Toxic Deaths (ascites Sarcoma 180; 0.2 mg./kg. i.p.)	T/C (median survival time, % over untreated controls) (ascites Sarcoma 180; [12])	% LTS (ascites Sarcoma 180; [12])	LTS (Long Term Survivors after 60 days) (ascites Sarcoma 180; [12])	Toxic Deaths (ascites Sarcoma 180; 1 mg./kg. i.p.)	T/C (median survival time, % over untreated controls) (ascites Sarcoma 180; [13])	% LTS (ascites Sarcoma 180; [13])	LTS (Long Term Survivors after 60 days) (ascites Sarcoma 180; [13])	Toxic Deaths (ascites Sarcoma 180; 5 mg./kg. i.p.)	further results
COc1cccc2c1C(=O)c1c(O)c3c(c(O)c1C2=O)C[C@@](O)(C(=O)CN1CCCCC1)C[C@@H]3O[C@H]1C[C@H](N)[C@H](O)[C@H](C)O1 [14-(N-piperidino)-daunomycin]	0.08 µg/mL (≈ 0.131 µM)	100%	89%	42%	0%	0.1 µg/mL (≈ 0.164 µM)	0%	0%	0%	0%	0/10	0/10	100%	0%	0/10	0/10	140%	20%	2/10	0/10	activity at 0.0062 µg/mL (Mouse Embryo Fibroblasts; [8]): 87%; activity at 0.025 µg/mL (Mouse Embryo Fibroblasts; [9]): 71%; activity at 0.1 µg/mL (Mouse Embryo Fibroblasts; [10]): 58%; activity at 0.4 µg/mL (Mouse Embryo Fibroblasts; [10]): 24%; mortality ([3]; 12.5 mg./kg. i.p.): 0%; mortality ([3]; 25 mg./kg. i.p.): 0%; mortality ([3]; 50 mg./kg. i.p.): 40%; T/C (median survival time, % over untreated controls) (ascites Sarcoma 180; [11]): 103%; T/C (median survival time, % over untreated controls) (ascites Sarcoma 180; [14]): 200%; % LTS (ascites Sarcoma 180; [14]): 20%; LTS (Long Term Survivors after 60 days) (ascites Sarcoma 180; [14]): 2/10; Toxic Deaths (ascites Sarcoma 180; 12.5 mg./kg. i.p.): 0/10; T/C (median survival time, % over untreated controls) (ascites Sarcoma 180; [15]): 218%; % LTS (ascites Sarcoma 180; [15]): 20%; LTS (Long Term Survivors after 60 days) (ascites Sarcoma 180; [15]): 2/10; Toxic Deaths (ascites Sarcoma 180; 25 mg./kg. i.p.): 0/10; T/C (median survival time, % over untreated controls) (ascites Sarcoma 180; [16]): 144%; % LTS (ascites Sarcoma 180; [16]): 20%; LTS (Long Term Survivors after 60 days) (ascites Sarcoma 180; [16]): 2/10; Toxic Deaths (ascites Sarcoma 180; 50 mg./kg. i.p.): 4/10
COc1cccc2c1C(=O)c1c(O)c3c(c(O)c1C2=O)C[C@@](O)(C(=O)CN1CCN(CCO)CC1)C[C@@H]3O[C@H]1C[C@H](N)[C@H](O)[C@H](C)O1 [14-[N-(N'-hydroxyethyl)piperazino]-daunomycin]	0.045 µg/mL (≈ 0.0686 µM)	71%	64%	43%	2%	0.08 µg/mL (≈ 0.122 µM)	0%	0%	0%	0%	0/10	0/10	103%	0%	0/10	0/10	103%	10%	1/10	0/10	activity at 0.0062 µg/mL (Mouse Embryo Fibroblasts; [8]): 67%; activity at 0.025 µg/mL (Mouse Embryo Fibroblasts; [9]): 64%; activity at 0.1 µg/mL (Mouse Embryo Fibroblasts; [10]): 52%; activity at 0.4 µg/mL (Mouse Embryo Fibroblasts; [10]): 31%; mortality ([3]; 12.5 mg./kg. i.p.): 0%; mortality ([3]; 25 mg./kg. i.p.): 0%; mortality ([3]; 50 mg./kg. i.p.): 30%; T/C (median survival time, % over untreated controls) (ascites Sarcoma 180; [11]): 103%; T/C (median survival time, % over untreated controls) (ascites Sarcoma 180; [14]): 152%; % LTS (ascites Sarcoma 180; [14]): 0%; LTS (Long Term Survivors after 60 days) (ascites Sarcoma 180; [14]): 0/10; Toxic Deaths (ascites Sarcoma 180; 12.5 mg./kg. i.p.): 0/10; T/C (median survival time, % over untreated controls) (ascites Sarcoma 180; [15]): 222%; % LTS (ascites Sarcoma 180; [15]): 10%; LTS (Long Term Survivors after 60 days) (ascites Sarcoma 180; [15]): 1/10; Toxic Deaths (ascites Sarcoma 180; 25 mg./kg. i.p.): 0/10; T/C (median survival time, % over untreated controls) (ascites Sarcoma 180; [16]): 152%; % LTS (ascites Sarcoma 180; [16]): 0%; LTS (Long Term Survivors after 60 days) (ascites Sarcoma 180; [16]): 0/10; Toxic Deaths (ascites Sarcoma 180; 50 mg./kg. i.p.): 3/10
COc1cccc2c1C(=O)c1c(O)c3c(c(O)c1C2=O)C[C@@](O)(C(=O)CN1CCN(C)CC1)C[C@@H]3O[C@H]1C[C@H](N)[C@H](O)[C@H](C)O1 [14-[N-(N'-methyl)-piperazino]-daunomycin]	0.011 µg/mL (≈ 0.0176 µM)	60%	35%	19%	0%	0.09 µg/mL (≈ 0.144 µM)	0%	0%	0%	0%	0/10	0/10	103%	0%	0/10	0/10	116%	0%	0/10	0/10	activity at 0.0062 µg/mL (Mouse Embryo Fibroblasts; [8]): 67%; activity at 0.025 µg/mL (Mouse Embryo Fibroblasts; [9]): 64%; activity at 0.1 µg/mL (Mouse Embryo Fibroblasts; [10]): 56%; activity at 0.4 µg/mL (Mouse Embryo Fibroblasts; [10]): 23%; mortality ([3]; 12.5 mg./kg. i.p.): 10%; mortality ([3]; 25 mg./kg. i.p.): 0%; mortality ([3]; 50 mg./kg. i.p.): 50%; T/C (median survival time, % over untreated controls) (ascites Sarcoma 180; [11]): 119%; T/C (median survival time, % over untreated controls) (ascites Sarcoma 180; [14]): 167%; % LTS (ascites Sarcoma 180; [14]): 30%; LTS (Long Term Survivors after 60 days) (ascites Sarcoma 180; [14]): 3/10; Toxic Deaths (ascites Sarcoma 180; 12.5 mg./kg. i.p.): 1/10; T/C (median survival time, % over untreated controls) (ascites Sarcoma 180; [15]): 226%; % LTS (ascites Sarcoma 180; [15]): 30%; LTS (Long Term Survivors after 60 days) (ascites Sarcoma 180; [15]): 3/10; Toxic Deaths (ascites Sarcoma 180; 25 mg./kg. i.p.): 0/10; T/C (median survival time, % over untreated controls) (ascites Sarcoma 180; [16]): 130%; % LTS (ascites Sarcoma 180; [16]): 10%; LTS (Long Term Survivors after 60 days) (ascites Sarcoma 180; [16]): 1/10; Toxic Deaths (ascites Sarcoma 180; 50 mg./kg. i.p.): 5/10
COc1cccc2c1C(=O)c1c(O)c3c(c(O)c1C2=O)C[C@@](O)(C(=O)CO)C[C@@H]3O[C@H]1C[C@H](N)[C@H](O)[C@H](C)O1 [Adriamycin, reference compound]	–	–	–	–	–	0.01 µg/mL (≈ 0.0184 µM)	0%	0%	10%	16%	5/30	0/30	177%	45%	13/29	0/29	200%	19%	9/47	5/47	activity at 0.0062 µg/mL ([1]; read-out: MSV-M No. of foci): 46%; activity at 0.0125 µg/mL ([1]; read-out: MSV-M No. of foci): 24%; activity at 0.025 µg/mL ([1]; read-out: MSV-M No. of foci): 0%; IC50 [1]: 0.005 µg/mL (≈ 0.0092 µM); activity at 0.0062 µg/mL (Mouse Embryo Fibroblasts): 61%; activity at 0.0125 µg/mL (Mouse Embryo Fibroblasts): 42%; activity at 0.025 µg/mL (Mouse Embryo Fibroblasts): 37%; mortality ([3]; 10 mg./kg. i.p.): 20%; % LTS (ascites Sarcoma 180; [17]): 0%; LTS (Long Term Survivors after 60 days) (ascites Sarcoma 180; [17]): 0/10; Toxic Deaths (ascites Sarcoma 180; 10 mg./kg. i.p.): 2/10
